In patent US20210275513A1, “SHELLAC MICROCAPSULE FORMULATIONS AND COMPOSITIONS FOR TOPICAL INTESTINAL DELIVERY OF VITAMIN B3” (CONARIS RESEARCH INSTITUTE AG, priority 2016, published 2021):
“And” between values parts separate entries of the source, which are not always exact repeats. Equal entries are not always repeated.

Tests used:
[1] = First-in-man (FIM) dose escalation study: NA and NAM serum levels by LC-MS/MS; assay type: in vivo, human
Method: (§1) Ten healthy volunteers were included and allocated to 2 groups of 5 subjects each. One group received NA and the other group received NAM.
In this dose escalation study, subjects ingested the test items in the morning from Monday to Thursday of every week, followed by a three-day washout period from Friday to Sunday (Table 7). Before and until 30 min after administration (or until after the second blood sampling on Mondays), subjects fasted with water only. During week 1, the subjects took one daily dose of 30 mg unformulated NA or 900 mg unformulated NAM, respectively, to measure the maximum systemic exposure and peak serum levels according to nutritional tolerable upper intake levels or levels without anticipated side effects (Table 8). From week 2 until week 6, NA microcapsules or NAM microcapsules packaged in gelatin capsules (see Example 1) were administered with weekly dose increases (Tables 7 and 8).
Blood samples were collected on Mondays and Thursdays (Table 7). On Mondays, the first blood sample was collected before ingestion of the capsules (“0 h” samples), and a second blood sample was taken after 2 hours (“2 h”), while subjects were still fasting. […] In addition, NA and NAM levels were measured in all blood samples by LC-MS/MS in an external specialised laboratory to determine exposure (see Example 1).

[2] = FIM dose escalation study: safety parameters (routine laboratory, blood pressure, body weight); details: week 1 hour 71: 30 mg free NA (NA group) or 900 mg free NAM (NAM group) daily; individual subjects
Method: as §1
In this dose escalation study, subjects ingested the test items in the morning from Monday to Thursday of every week, followed by a three-day washout period from Friday to Sunday (Table 7). Before and until 30 min after administration (or until after the second blood sampling on Mondays), subjects fasted with water only. During week 1, the subjects took one daily dose of 30 mg unformulated NA or 900 mg unformulated NAM, respectively, to measure the maximum systemic exposure and peak serum levels according to nutritional tolerable upper intake levels or levels without anticipated side effects (Table 8).
In order to determine the intake of NA and NAM via the usual diet, a nutritional protocol was completed by the subjects from Mondays to Wednesdays. Blood samples were collected on Mondays and Thursdays (Table 7). On Mondays, the first blood sample was collected before ingestion of the capsules (“0 h” samples), and a second blood sample was taken after 2 hours (“2 h”), while subjects were still fasting. On Thursdays, blood samples were taken after administration of the capsules (“72 h”). Blood samples were subjected to routine laboratory analyses at the central laboratory of the University Hospital Schleswig-Holstein in Kiel (Germany). […] Blood pressure was measured on Mondays and Thursdays (Table 7).

[3] = tested on: intestinal microbiota; assay: FIM study: microbiota analyses of stool samples (16S rRNA V3-V4 sequencing); assay type: in vivo, human; details: for abundance-based (Bray curtis) bacterial communities distance compared with a healthy normal reference group: baseline vs end of FIM study
Text: For microbiota analyses, stool samples were collected on the first Monday of the study (day 0, baseline sample) and subsequently once weekly on Thursdays (Table 7). Total genomic DNA was extracted from feces collected longitudinally from each subject using MoBio Powersoil DNA Isolation kit (Dianova GmbH, Hamburg, Germany) according to the manufacturer's instructions. Aliquots of extracted DNA were used to amplify the V3-V4 variable region of 16S rRNA using composite primers (319F and 806R), as described by Fadrosh et al. (Microbiome 2:6, 2014). Amplification was performed by Phusion® hot start flex 2X master mix (New England Biolabs, Frankfurt/M., Germany) in a GeneAmp PCR system 9700 (Life Technologies/Applied Biosystems, Darmstadt, Germany) using the following cycling conditions: an initial denaturation of 3 min at 98° C. followed by 30 cycles of denaturation at 98° C. for 10 s, annealing at 55° C. for 30 s and elongation at 72° C. for 30 s, and a final extension step at 72° C. for 10 min. PCR performance was assessed by agarose gel electrophoresis for quality (expected amplicon size) and quantity (band intensity). Quantitative normalization was performed using the SequalPrep kit (Life/Technologies/Invitrogen, Darmstadt, Germany) to pool equal amounts of amplicons per sample. Sequencing was performed by Illumina MiSeq (2×250 sequencing kit; Illumina, San Diego, Calif., USA), which allowed to generate paired end reads with entire overlapping in contigs generation. Sequencing reads were primarily processed for quality control using the software mothur (Schloss et al. 2009, Appl. Environ. Microbiol. 75:7537). Forward and reverse reads (fastq) were assembled to contig sequences and discarded if they had more than 475 bases, any ambiguous base or more than 8 homopolymers. Sequences were aligned against the mothur-curated silva alignment database and screened to have alignment in the amplified specified V3-V4 region only. Chimeric sequences were detected with the Uchime algorithm (Edgar et al. 2011, Bioinformatics 27:2194) and were also removed. […]

[4] = pH properties of shellac and NAM (dissolution pH, pH value); assay type: physicochemical
[5] = Pilot pharmacokinetic (PK) study with NAM microcapsules: NA and NAM serum levels; assay type: in vivo, human
Method: The study was a self-experiment by medical investigators performed at the Department of Internal Medicine 1 of the University Hospital Schleswig-Holstein, Campus Kiel (Kiel, Germany).
In this study, subjects ingested either 900 mg of unformulated NAM (first week) or 900 mg of microencapsulated NAM packaged in gelatin capsules (second week). […] One such “low niacin meal” consisted of 150 g of apple, 150 g of red pepper and 100 g of cucumber. One niacin equivalent is defined as 1 mg of NA(M) or 60 mg of tryptophan.
Height and body weight were recorded before ingestion of the test item.

[6] = clinical; details: both, human, in vivo, 900 mg, mean
Method: The study consisted of four study days, each separated by one week of washout and regeneration. On the calibration day of the study, the subjects ingested 30 mg of unformulated NA (NA group) or 900 mg of unformulated NAM (NAM group) as in the FIM study (see Example 2). Different doses of microencapsulated NA or NAM packaged in gelatin capsules were administered on the other three study days: 30 mg NA or 900 mg NAM, 150 mg NA or 1500 mg NAM, and 300 mg NA or 3000 mg NAM.
After 12 h of fasting overnight (with water only), a fasted blood sample was collected. After ingestion of NA, NAM or the respective capsules, blood samples were collected every hour until 8 hours after ingestion as well as after 10 and 12 hours. During the collection of blood samples, subjects remained fasted (with water ad libitum) except for two light meals with minimal vitamin B3 content after the blood samplings of hour 3 and hour 8. One such “low niacin meal” consisted of three rice wafers, one apple and one carrot with a total of 2.3 mg of niacin equivalents.
Statistical analyses were carried out using SPSS version 22.0 (SPSS, Chicago, Ill., USA), and graphic data analysis was performed with GraphPad Prism version 5.0 (GraphPad Software, San Diego, Calif., USA). […]

accumulation (serum levels at 72 hours vs baseline levels) [1]	pH value [4]	NAM serum levels ([5]; 900 mg free or enc. NAM, hour 1, subjects 1-3)	NAM serum levels ([5]; 900 mg free or enc. NAM, hour 2, subjects 1-3)	NAM serum levels ([5]; 900 mg free or enc. NAM, hour 3, subjects 1-3)	NAM serum levels ([5]; 900 mg free or enc. NAM, hour 4, subjects 1-3)	time of peak of NAM serum levels after ingestion ([5]; 900 mg, three healthy volunteers)	concentration at 1 h ([5]; human, serum, oral, 900 mg, 900 mg free or enc. NAM, hour 1, subjects 1-3)	concentration at 2 h ([5]; human, serum, oral, 900 mg, 900 mg free or enc. NAM, hour 2, subjects 1-3)	concentration at 3 h ([5]; human, serum, oral, 900 mg, 900 mg free or enc. NAM, hour 3, subjects 1-3)	concentration at 4 h ([5]; human, serum, oral, 900 mg, 900 mg free or enc. NAM, hour 4, subjects 1-3)	AUC [6]	SMILES	Blood pressure, systolic [2]	Glucose [2]	abundance-based (Bray curtis) bacterial communities distance compared with a healthy normal reference group [3]	Bacteroidetes (read counts) ([3]; before, during and at the end of the FIM study)
No NA or NAM accumulation was observed												O=C(O)c1cccnc1 [free NA, nicotinic acid]	120 mm Hg and 130 mm Hg (2×) and 115 mm Hg and 105 mm Hg	77 mg/dL and 92 mg/dL and 89 mg/dL and 85 mg/dL and 94 mg/dL	significant change	moderate, but overall significant increase
No NA or NAM accumulation was observed	6.61	19,900 μg/L and 20,100 μg/L	15,900 μg/L and 17,200 μg/L	9,740 μg/L and 13,100 μg/L	7,390 μg/L and 10,300 μg/L	1 h	11600 ng/mL	10300 ng/mL	8380 ng/mL	5920 ng/mL	78300 ng·h/mL	NC(=O)c1cccnc1 [free NAM, nicotinamide]	120 mm Hg (4×) and 105 mm Hg	87 mg/dL and 80 mg/dL and 92 mg/dL and 84 mg/dL and 83 mg/dL	trend	
